# Marks after values point to notes of the source that are not given here.
# Test: log P determination
# Format: physicochemical
# Details: EEC Directive 79/831 Annex V. A8 by HPLC (gradient method, acetonitrile/0.1% aqueous phosphoric acid)
row,log p,Structure (SMILES)
1,4.85,CC(C)C(C)Nc1c(-c2c(Cl)cc(OC(F)(F)F)cc2Cl)c(Cl)nc2c(C(=O)NS(C)(=O)=O)cnn12 (racemic) [compound 1198]
2,4.35,CC(C)C(C)Nc1c(-c2ccc(F)cc2Cl)c(Cl)nc2c(C(=O)Nc3ccn(C)n3)cnn12 (stereo not drawn) [compound 1184]

# Same assay, conditions: HPLC, gradient method, acetonitrile/0.1% aqueous phosphoric acid (EEC Directive 79/831 Annex V. A8)
row,log p,Structure (SMILES)
1,4.42,CNC(=O)NC(=O)c1cnn2c(N[C@H](C)C(C)C)c(-c3ccc(F)cc3C)c(Cl)nc12 [Example 1178]
2,6.61,Cc1cc(F)ccc1-c1c(Cl)nc2c(C(=O)Nc3ncccn3)cnn2c1NC(C)C(C)C (stereo not drawn) [compound 1179]
3,3.46,CC(C)C(C)Nc1c(-c2ccc(F)cc2F)c(Cl)nc2c(C(=O)NN3CCOCC3)cnn12 (stereo not drawn) [compound 1180]
4,4.41,Cc1ccc(-c2c(Cl)nc3c(C(=O)NN4CCOCC4)cnn3c2NC(C)C(C)(C)C)c(Cl)c1 (stereo not drawn) [compound 1181]
5,3.76,CC(Nc1c(-c2ccc(F)cc2F)c(Cl)nc2c(C(=O)NN3CCOCC3)cnn12)C(C)(C)C (stereo not drawn) [compound 1182]
6,3.63,Cc1ccsc1-c1c(Cl)nc2c(C(=O)NN3CCOCC3)cnn2c1NC(C)C(C)C (stereo not drawn) [compound 1183]

# Same assay, conditions: intermediates of formula drawing 23, table
row,log P,Structure (SMILES)
1,4.05,COC(=O)c1cnn2c(NC(C)C(C)C)c(-c3c(F)cc(F)cc3F)c(Cl)nc12 (stereo not drawn)
2,4.93,COC(=O)c1cnn2c(NC(C)C(C)(C)C)c(-c3c(F)cc(F)cc3F)c(Cl)nc12 (stereo not drawn)
3,4.61,"COC(=O)c1cnn2c(N3CCC(C)CC3)c(-c3c(F)cccc3Cl)c(Cl)nc12 [(CH2—CH2—CHCH3—CH2—CH2), 2-Cl-6-F-phenyl]"
4,3.53,"COC(=O)c1cnn2c(NC(C)C(F)(F)F)c(-c3c(F)cc(F)cc3F)c(Cl)nc12 (stereo not drawn) [CH(CH3)(CF3), H, 2,4,6-trifluorophenyl]"
5,3.75,"COC(=O)c1cnn2c(NC(C)C(F)(F)F)c(-c3ccc(F)cc3Cl)c(Cl)nc12 (stereo not drawn) [CH(CH3)(CF3), H, 2-Cl-4-F-phenyl]"
6,4.68,"COC(=O)c1cnn2c(NC(C)C(C)(C)C)c(-c3ccc(F)cc3Cl)c(Cl)nc12 (stereo not drawn) [CH(CH3)—C(CH3)3, H, 2-Cl-4-F-phenyl]"
7,4.51,"COC(=O)c1cnn2c(NC(C)C(C)(C)C)c(-c3c(F)cccc3Cl)c(Cl)nc12 (stereo not drawn) [CH(CH3)—C(CH3)3, H, 2-Cl-6-F-phenyl]"
8,4.61,"COC(=O)c1cnn2c(NC(C)C(C)(C)C)c(-c3ccccc3Cl)c(Cl)nc12 (stereo not drawn) [CH(CH3)—C(CH3)3, H, 2-Cl-phenyl]"
9,3.15,"COC(=O)c1cnn2c(NC(C)C(C)(C)C)c(-c3ncncc3F)c(Cl)nc12 (stereo not drawn) [CH(CH3)—C(CH3)3, H, 5-F-pyrimidin-4-yl]"
10,4.31,"COC(=O)c1cnn2c(NC(C)C(C)C)c(-c3ccc(F)cc3Cl)c(Cl)nc12 (stereo not drawn) [CH(CH3)—CH(CH3)2, H, 2-Cl-4-F-phenyl]"
11,4.12,"COC(=O)c1cnn2c(NC(C)C(C)C)c(-c3c(F)cccc3Cl)c(Cl)nc12 (stereo not drawn) [CH(CH3)—CH(CH3)2, H, 2-Cl-6-F-phenyl]"
12,4.21,"COC(=O)c1cnn2c(NC(C)C(C)C)c(-c3ccccc3Cl)c(Cl)nc12 (stereo not drawn) [CH(CH3)—CH(CH3)2, H, 2-Cl-phenyl]"

# Same assay, conditions: starting materials and intermediates, log P / log P*; read-out: log P
row,log p,Structure (SMILES)
1,3.3,"CC(C)Nc1c(-c2ccc(Cl)cc2Cl)c(Cl)nc2c(C(=O)O)cnn12 [5-Chloro-6-(2,4-dichlorophenyl)-7-isopropylaminopyrazolo[1,5-a]pyrimidine-3-carboxylic acid]"
2,3.86,"COC(=O)c1cnn2c(Cl)c(-c3ccc(Cl)cc3Cl)c(Cl)nc12 [Methyl 5,7-dichloro-6-(2,4-dichlorophenyl)pyrazolo[1,5-a]pyrimidine-3-carboxylate]"
3,4.07,"COC(=O)c1cnn2c(NC(C)C)c(-c3ccc(Cl)cc3Cl)c(Cl)nc12 [Methyl 5-chloro-6-(2,4-dichlorophenyl)-7-isopropylaminopyrazolo[1,5-a]pyrimidine-3-carboxylate]"
4,1.21,"COC(=O)c1cnn2c(O)c(-c3ccc(Cl)cc3Cl)c(O)nc12 [Methyl 6-(2,4-dichlorophenyl)-5,7-dihydroxypyrazolo[1,5-a]pyrimidine-3-carboxylate]"

# Same assay, conditions: values marked **; EEC Directive 79/831 Annex V.A8, HPLC gradient method, acetonitrile/0.1% aqueous formic acid
row,log p,Structure (SMILES)
1,4.38**,Cc1cc(F)c(-c2c(Cl)nc3c(C(=O)NS(C)(=O)=O)cnn3c2N[C@H](C)C(C)(C)C)c(F)c1 [compound 51]
2,4.88**,CC(Nc1c(-c2ccccc2)c(Cl)nc2c(C(=O)Nc3ccon3)cnn12)C(C)(C)C (stereo not drawn) [compound 71]
3,3.87**,CC(C)[C@@H](C)Nc1c(-c2ccc(Cl)cc2Cl)c(Cl)nc2c(C(=O)NS(=O)(=O)C(F)(F)F)cnn12 [compound 206]
4,4.88**,CCS(=O)(=O)NC(=O)c1cnn2c(N[C@H](C)C(C)C)c(-c3ccc(Cl)cc3Cl)c(Cl)nc12 [compound 208]
5,4.08**,Cc1cc(F)c(-c2c(Cl)nc3c(C(=O)NS(C)(=O)=O)cnn3c2N[C@H](C)C(C)C)c(F)c1 [compound 219]

# Same assay, conditions: values marked *; HPLC, gradient method, acetonitrile/0.1% aqueous phosphoric acid, EEC Directive 79/831 Annex V. A8
log p,chromatographic logP,Structure (SMILES)
3.57*,,CC(C)Nc1c(-c2ccc(F)cc2Cl)c(Cl)nc2c(C(=O)NS(C)(=O)=O)cnn12 [Example 351]
3.44*,,CC(C)Nc1c(-c2ccccc2Cl)c(Cl)nc2c(C(=O)NS(C)(=O)=O)cnn12 [Example 357]
3.68*,,CC(C)Nc1c(-c2c(F)cc(Cl)cc2F)c(Cl)nc2c(C(=O)NS(C)(=O)=O)cnn12 [Example 381]
3.59*,,CC(C)CNc1c(-c2c(F)cc(F)cc2F)c(Cl)nc2c(C(=O)NS(C)(=O)=O)cnn12 [Example 429]
3.82*,,CC(C)CNc1c(-c2ccc(F)cc2Cl)c(Cl)nc2c(C(=O)NS(C)(=O)=O)cnn12 [Example 435]
3.78*,,CC(C)CNc1c(-c2ccccc2Cl)c(Cl)nc2c(C(=O)NS(C)(=O)=O)cnn12 [Example 441]
4.26*,,CC(C)CNc1c(-c2ccc(Cl)cc2Cl)c(Cl)nc2c(C(=O)NS(C)(=O)=O)cnn12 [Example 459]
3.97*,,CC(C)CNc1c(-c2c(F)cc(Cl)cc2F)c(Cl)nc2c(C(=O)NS(C)(=O)=O)cnn12 [Example 465]
4.04*,,CC(C)(C)CNc1c(-c2c(F)cccc2Cl)c(Cl)nc2c(C(=O)NS(C)(=O)=O)cnn12 [Example 507]
3.9*,,CC(C)(C)CNc1c(-c2c(F)cc(F)cc2F)c(Cl)nc2c(C(=O)NS(C)(=O)=O)cnn12 [Example 513]
4.19*,,CC(C)(C)CNc1c(-c2ccc(F)cc2Cl)c(Cl)nc2c(C(=O)NS(C)(=O)=O)cnn12 [Example 519]
4.17*,,CC(C)(C)CNc1c(-c2ccccc2Cl)c(Cl)nc2c(C(=O)NS(C)(=O)=O)cnn12 [Example 525]
4.63*,,CC(C)(C)CNc1c(-c2ccc(Cl)cc2Cl)c(Cl)nc2c(C(=O)NS(C)(=O)=O)cnn12 [Example 543]
4.31*,,CC(C)(C)CNc1c(-c2c(F)cc(Cl)cc2F)c(Cl)nc2c(C(=O)NS(C)(=O)=O)cnn12 [Example 549]
,3.91,CC(C)Nc1c(-c2ccc(Cl)cc2Cl)c(Cl)nc2c(C(=O)NS(C)(=O)=O)cnn12 [compound 375]

# Same assay, conditions: values marked *; no footnote carries the single asterisk; general footnote: HPLC gradient method, acetonitrile/0.1% aqueous phosphoric acid
row,log p,Structure (SMILES)
1,4.19*,C[C@@H](Nc1c(-c2c(F)cccc2Cl)c(Cl)nc2c(C(=O)NS(C)(=O)=O)cnn12)C(C)(C)C [Example 3]
2,4.36*,C[C@@H](Nc1c(-c2ccccc2Cl)c(Cl)nc2c(C(=O)NS(C)(=O)=O)cnn12)C(C)(C)C [Example 21]
3,4.89*,C[C@@H](Nc1c(-c2ccc(Cl)cc2Cl)c(Cl)nc2c(C(=O)NS(C)(=O)=O)cnn12)C(C)(C)C [Example 39]
4,4.55*,C[C@@H](Nc1c(-c2c(F)cc(Cl)cc2F)c(Cl)nc2c(C(=O)NS(C)(=O)=O)cnn12)C(C)(C)C [Example 45]
5,3.9*,CC(C)[C@@H](C)Nc1c(-c2c(F)cccc2Cl)c(Cl)nc2c(C(=O)NS(C)(=O)=O)cnn12 [Example 171]
6,4.01*,CC(C)[C@@H](C)Nc1c(-c2ccccc2Cl)c(Cl)nc2c(C(=O)NS(C)(=O)=O)cnn12 [Example 189]
7,4.05*,CC(C)[C@@H](C)Nc1c(-c2c(F)cc(F)cc2Cl)c(Cl)nc2c(C(=O)NS(C)(=O)=O)cnn12 [Example 201]
8,4.55*,CC(C)[C@@H](C)Nc1c(-c2ccc(Cl)cc2Cl)c(Cl)nc2c(C(=O)NS(C)(=O)=O)cnn12 [Example 207]
9,4.24*,CC(C)[C@@H](C)Nc1c(-c2c(F)cc(Cl)cc2F)c(Cl)nc2c(C(=O)NS(C)(=O)=O)cnn12 [Example 213]
10,4.2*,CC1CCN(c2c(-c3c(F)cccc3Cl)c(Cl)nc3c(C(=O)NS(C)(=O)=O)cnn23)CC1 [Example 255]
11,4.07*,CC1CCN(c2c(-c3c(F)cc(F)cc3F)c(Cl)nc3c(C(=O)NS(C)(=O)=O)cnn23)CC1 [Example 261]
12,4.34*,CC1CCN(c2c(-c3c(F)cc(F)cc3Cl)c(Cl)nc3c(C(=O)NS(C)(=O)=O)cnn23)CC1 [Example 285]

# Same assay, conditions: values printed without asterisk; EEC Directive 79/831 Annex V. A8, HPLC gradient method, acetonitrile/0.1% aqueous phosphoric acid (general footnote)
row,log p,Structure (SMILES)
1,4.16,C[C@@H](Nc1c(-c2c(F)cc(F)cc2F)c(Cl)nc2c(C(=O)NS(C)(=O)=O)cnn12)C(C)(C)C [Example 9]
2,3.77,C[C@@H](Nc1c(-c2ccc(F)cc2Cl)c(Cl)nc2c(C(=O)NS(=O)(=O)C(F)(F)F)cnn12)C(C)(C)C [Example 14]
3,4.44,C[C@@H](Nc1c(-c2ccc(F)cc2Cl)c(Cl)nc2c(C(=O)NS(C)(=O)=O)cnn12)C(C)(C)C [Example 15]
4,4.38,C[C@@H](Nc1c(-c2c(F)cc(F)cc2Cl)c(Cl)nc2c(C(=O)NS(C)(=O)=O)cnn12)C(C)(C)C [Example 33]
5,3.93,C[C@@H](Nc1c(-c2ccc(Cl)cc2Cl)c(Cl)nc2c(C(=O)NS(=O)(=O)C(F)(F)F)cnn12)C(C)(C)C [Example 38]
6,3.99,C[C@H](Nc1c(-c2ccc(Cl)cc2Cl)c(Cl)nc2c(C(=O)NS(C)(=O)=O)cnn12)C(F)(F)F [Example 123]
7,4.18,CC(C)[C@@H](C)Nc1c(-c2ccc(F)cc2Cl)c(Cl)nc2c(C(=O)NS(C)(=O)=O)cnn12 [Example 183]
